These are literature values, as cited in US5211943A, “Pharmaceutical preparation for administration by percutaneous absorption and a method for their manufacture” (Chugai Seiyaku Kabushili Kaisha, priority 1986, dated 1993).

One data set concerns coronary vessels. To be noted: Japanese Patent Publication 58-17463.
For data set [1] the following is noted: high temperature or high humidity, or in solution; Iyakuhin Kenkyu vol. 14, 1983.
The conditions of data set [2]: oral; rapid increase of blood level.

Consider `O=C(NCCO[N+](=O)[O-])c1cccnc1` [Nicorandil, N-(2-hydroxyethyl)nicotinamide nitrate], for which, in the data set on coronary vessels, the “effect on coronary vessels, coronary veins and heart” value is “acts to dilate the coronary vessels and to inhibit contractions of the coronary veins, without much effect on the blood flow through the heart or on heart function”. Further, the stability result in data set [1] is reported as “relatively unstable”. Also, the “side effects when given orally” value in data set [2] was “orthostatic hypotension and headache”.
